Experimental data from ChEMBL document CHEMBL3108766, “Cladosins A-E, hybrid polyketides from a deep-sea-derived fungus, Cladosporium sphaerospermum” (J Nat Prod, 2014).

Tested on: Influenza A virus
Experiment: Antiviral activity against influenza A virus H1N1 infected in MDCK cells assessed as inhibition of virus-induced cytopathic effect after 48 hrs by crystal violet staining assay
Type: functional, organism-based

Structure (SMILES) | IC50 [µM]
CC(C)=C1NC(=O)/C(=C(N)\C=C\C[C@H](C)O)C1=O | 276
NC(=O)c1ncn([C@@H]2O[C@H](CO)[C@@H](O)[C@H]2O)n1 [RIBAVIRIN] | 131
